Laboratory results published in patent US11524010B2, “Substituted quinazoline sulfonamides as thioredoxin interacting protein (TXNIP) inhibitors” (SOUTHERN RESEARCH INSTITUTE, priority 2017, dated 2022).

Key:
TXNIP = assay: Inhibition of glucose-induced endogenous TXNIP expression in INS-1 cells (qRT-PCR); assay type: cell-based, Rat; conditions: Rattus norvegicus, INS1, 24 h, 25 mM glucose; for inhibition at 1.5 µM: 1.5 μM compound; for inhibition at 12.5 µM: 12.5 μM compound
Protocol: The Rat INS-1 cell line was obtained from UAB and maintained in RPMI-1640 (Invitrogen #11875) supplemented with 10% fetal bovine serum (FBS), 100 U/ml penicillin and […] streptomycin, 10 mM HEPES, 1 mM Sodium Pyruvate, 50 μM 2-Mercaptoethanol, and 11.1 mM Glucose in a humidified incubator with a 5% C02 atmosphere at 37° C. 4×10^4 cells per well were seeded to 96-well plate and incubated at 37° C. overnight. A subset of the cells were then cultured in medium with 5 mM Glucose for 24 hrs and then treated in medium with 25 mM glucose with or without compounds to be tested for another 24 hrs.
For the primary high throughput screening (HTS) assay, stably transfected, monoclonal INS-1 cells were split using Trypsin (2 ml per T75 flask) and seeded at a density of 10^4/well in a 384-well plate and incubated overnight at low, 5 mM glucose. The next day, the medium was changed to high glucose (25 mM) or high glucose plus the small molecules to be tested and luciferase assays were performed 24 h later. […] For secondary screens, total RNA was extracted from 96-well cultured cells using RNeasy 96 kit (Qiagen #74181) following the manufacturer's protocol using spin technology. Then a one-step qRT-PCR amplification was performed using QuantiFast SYBR Green RT-PCR kit (Qiagen #204154) and was carried out in a 10 μl reaction which consisted of 2 μl RNA, 0.5 μM each of primers (Rat TXNIP 5′ primer: […] (SEQ ID NO:1) and Rat TXNIP 3′ primer: […] (SEQ ID NO:2); Or Rat 18S rRNA 5′ primer: […] (SEQ ID NO:3) and Rat 18S rRNA 3′ primer: […]) (SEQ ID NO:4), 5 μl 2×SYBR Green Master Mix, 0.1 μl 10× QuantiFast RT Mix. The SYBR Green assay was performed using a LightCycler 480 II (Roche Applied Science) with an initial incubation at 50° C. for 10 min for RT followed by denaturation at 95° C. for 5 min. Forty cycles of amplification were performed using a thermal cycling profile of 95° C. for 10s, 60° C. for 30 s. Subsequently, a melting curve was recorded by holding at 95° C. for 60 s, cooling to 60° C. for 60 s, and then heating at 0.11° C./s up to 95° C. The data was collected and analyzed using the LightCycler 480 Software Release 1.5.0 SP3. The relative amount of TXNIP mRNA was normalized to 18 s rRNA level as a housekeeping gene, and the data was analyzed according to the 2^−ΔΔCT method (1). The transformed data was expressed as % inhibition and compound IC50 calculated by a 4-parameter logistic fit of the data using GraphPad Prism 7.

[1] = INS-1 cell viability (Cell Titer-Glo, ATP); assay type: cell-based, Rat; conditions: rat, INS-1 cells, 72 hrs treatment
Protocol: INS-1 cell viability was determined based on quantification of ATP using Cell Titer-Glo Luminescent Cell Viability Assay kit (Promega #G7572), which indicates the presence of metabolically active cells. Briefly, INS-1 cells were seeded into 96-well plates at a cell density of 4.5×10^4 and 3.5×10^4 cells per well and incubated overnight at 37° C. with 5% CO2. On the following day, cells were treated with compounds for 24 hrs and 72 hrs respectively. Cell Titer-Glo reagent was added to the cells and Luminescence was acquired on Synergy 4 Reader ([…]).

Structure (SMILES) | inhibition at 1.5 µM (TXNIP) | inhibition at 12.5 µM (TXNIP) | CC50 at 72 h [1]
CS(=O)(=O)NCC1CCCN(c2ncnc3cc(C(N)=O)c(F)cc23)C1 (stereo not drawn) [Compound 21, 6-fluoro-4-(3-(methylsulfonamidomethyl)piperidin-1-yl)quinazoline-7-carboxamide] | 0% | 12% | > 100 µM
CC(C)N(CC1CCCN(c2ncnc3ccc(F)cc23)C1)S(=O)(=O)c1ccccc1 (stereo not drawn) [Compound 42, N-((1-(6-fluoroquinazolin-4-yl)piperidin-3-yl)methyl)-N-isopropylbenzenesulfonamide] | 32% | 30% | 4 µM
CC(NS(C)(=O)=O)C1CCCN(c2ncnc3cc(F)c(F)cc23)C1 (stereo not drawn) [Compound 45, N-(1-(1-(6,7-difluoroquinazolin-4-yl)piperidin-3-yl)ethyl)methanesulfonamide] | 22% | 44% | > 100 µM
O=S(=O)(NCC1CCCN(c2ncnc3ccc(C(F)(F)F)cc23)C1)c1ccc(Cl)cc1 (stereo not drawn) [Compound 56, 4-chloro-N-((1-(6-(trifluoromethyl)quinazolin-4-yl)piperidin-3-yl)methyl)benzenesulfonamide] | 19% | 30% | 17 µM
COc1ccc2ncnc(N3CCCC(CN(C(C)C)S(=O)(=O)c4ccccc4)C3)c2c1 (stereo not drawn) [Compound 41, N-isopropyl-N-((1-(6-methoxyquinazolin-4-yl)piperidin-3-yl)methyl)benzene-sulfonamide] | 36% | 65% | 7 µM
CS(=O)(=O)NCC1CCN(c2ncnc3ccc(F)cc23)C1 (stereo not drawn) [Compound 51, N-((1-(6-fluoroquinazolin-4-yl)pyrrolidin-3-yl)methyl)methanesulfonamide] | 18% | 20% | > 100 µM
CS(=O)(=O)NCC1CCCCN1c1ncnc2cc(C#N)c(F)cc12 (stereo not drawn) [Compound 43, N-((1-(7-cyano-6-fluoroquinazolin-4-yl)piperidin-2-yl)methyl)methane-sulfonamide] | 0% | 16% | > 100 µM
CS(=O)(=O)NCC1CCCN(c2nc(N3CCOCC3)nc3ccccc23)C1 (stereo not drawn) [Compound 17, N-((1-(2-morpholinoquinazolin-4-yl)piperidin-3-yl)methyl)methanesulfonamide] | 0% | 15% | > 100 µM
CS(=O)(=O)NCC1CCN(c2ncnc3ccc(F)cc23)CC1 [Compound 44, N-((1-(6-fluoroquinazolin-4-yl)piperidin-4-yl)methyl)methanesulfonamide] | 4% | 22% | > 100 µM
CS(=O)(=O)NCC1CCCN(c2ncnc3cc(F)c(C(F)(F)F)cc23)C1 (stereo not drawn) [Compound 30, N-((1-(7-fluoro-6-(trifluoromethyl)quinazolin-4-yl)piperidin-3-yl)methyl)methane-sulfonamide] | 9% | 33% | > 100 µM
CS(=O)(=O)NCC1CCCN(c2ncnc3ccc(F)cc23)C1 (stereo not drawn) [Compound 1, N-((1-(6-fluoroquinazolin-4-yl)piperidin-3-yl)methyl)methanesulfonamide] | 44% | 54% | > 100 µM
CS(=O)(=O)NC1CCCN(c2ncnc3cc(C#N)c(F)cc23)C1 (stereo not drawn) [Compound 36, N-(1-(7-cyano-6-fluoroquinazolin-4-yl)piperidin-3-yl)methanesulfonamide] | 0% | 34% | 35 µM
CS(=O)(=O)NCC1CCCN(c2ncnc3cc(F)c(C#N)cc23)C1 (stereo not drawn) [Compound 29, N-((1-(6-cyano-7-fluoroquinazolin-4-yl)piperidin-3-yl)methyl)methanesulfonamide] | 39% | 66% | > 100 µM
CS(=O)(=O)NCC1CCCN(c2ncnc3ccc(S(C)(=O)=O)cc23)C1 (stereo not drawn) [Compound 14, N-((1-(6-(methylsulfonyl)quinazolin-4-yl)piperidin-3-yl)methyl)methanesulfonamide] | 0% | 24% | > 100 µM
O=S(=O)(NCC1CCCN(c2ncnc3ccc(C(F)(F)F)cc23)C1)C1CCCCC1 (stereo not drawn) [Compound 55, N-((1-(6-(trifluoromethyl)quinazolin-4-yl)piperidin-3-yl)methyl)cyclohexanesulfonamide] | 29% | 41% | 7 µM
CS(=O)(=O)NCC1CCCN(c2ncnc3cc(N4CCOCC4)c(F)cc23)C1 (stereo not drawn) [Compound 23, N-((1-(6-fluoro-7-morpholinoquinazolin-4-yl)piperidin-3-yl)methyl)methanesulfonamide] | 0% | 23% | > 100 µM
Cc1cc2ncnc(N3CCCC(CNS(C)(=O)=O)C3)c2cc1F (stereo not drawn) [Compound 22, N-((1-(6-fluoro-7-methylquinazolin-4-yl)piperidin-3-yl)methyl)methanesulfonamide] | 15% | 34% | > 100 µM
CS(=O)(=O)NCC1CCCN(c2ncnc3cccc(F)c23)C1 (stereo not drawn) [Compound 2, N-((1-(5-fluoroquinazolin-4-yl)piperidin-3-yl)methyl)methanesulfonamide] | 13% | 61% | > 100 µM
CS(=O)(=O)NCC1CCCN(c2ncnc3cc(F)ccc23)C1 (stereo not drawn) [Compound 4, N-((1-(7-fluoroquinazolin-4-yl)piperidin-3-yl)methyl)methanesulfonamide] | 24% | 16% | > 100 µM
NC(=O)c1cc2ncnc(N3CCCC(CNS(=O)(=O)C4CC4)C3)c2cc1F (stereo not drawn) [Compound 59, 4-(3-(cyclopropanesulfonamidomethyl)piperidin-1-yl)-6-fluoroquinazoline-7-carboxamide] | 5% | 5% | > 100 µM
CS(=O)(=O)NC1CCCN(c2ncnc3ccc(Cl)cc23)C1 (stereo not drawn) [Compound 35, N-(1-(6-chloroquinazolin-4-yl)piperidin-3-yl)methanesulfonamide] | 38% | 64% | 41 µM
CC(C)(C)C(=O)Nc1ccc2ncnc(N3CCCC(CNS(C)(=O)=O)C3)c2c1 (stereo not drawn) [Compound 25, N-(4-(3-(methylsulfonamidomethyl)piperidin-1-yl)quinazolin-6-yl)pivalamide] | 28% | 51% | > 100 µM
CS(=O)(=O)NCC1CCCN(c2ncnc3ccc(-c4ncco4)cc23)C1 (stereo not drawn) [Compound 26, N-((1-(6-(oxazol-2-yl)quinazolin-4-yl)piperidin-3-yl)methyl)methanesulfonamide] | 2% | 28% | > 100 µM
CS(=O)(=O)NCC1(O)CCCN(c2ncnc3cc(F)c(C#N)cc23)C1 (stereo not drawn) [Compound 49, N-((1-(6-cyano-7-fluoroquinazolin-4-yl)-3-hydroxypiperidin-3-yl)methyl)methanesulfonamide] | 2% | 2% | > 100 µM
CS(=O)(=O)NCC1CCCN(c2nc(O)nc3ccc(C(F)(F)F)cc23)C1 (stereo not drawn) [Compound 62, N-((1-(2-hydroxy-6-(trifluoromethyl)quinazolin-4-yl)piperidin-3-yl)methyl)methanesulfonamide] | 20% | 20% | > 100 µM
CS(=O)(=O)NCC1CCCN(c2ncnc3cc(C#N)c(F)cc23)C1 (stereo not drawn) [Compound 20, N-((1-(7-cyano-6-fluoroquinazolin-4-yl)piperidin-3-yl)methyl)methanesulfonamide] | 19% | 30% | > 100 µM
